In US20250134871A1, “UPR MODULATORS TO TREAT HEARING LOSS” (JACARANDA BIOSCIENCES, INC., priority 2021, published 2025):

Tested on: CHOP
Test: ER stress induction in HEK cells treated with compounds (CHOP mRNA, qPCR)
Type: cell-based
Conditions: HEK 293 cells, 0.5 μM thapsigargin and 0.1 to 5.0 μM of each drug for 2 hours; CHOP mRNA by qPCR, ΔΔCt vs GAPDH
Procedure: HEK 293 cells were cultured in DMEM with 10% FBS, Pen/Strep in 5% CO2, at 37° C. in incubator. Cells were split and seeded at approximately 2×10^4 cells in each well of 96-well plate one day before treatment. Cells were grown in good shape and passaged one or two times before testing.
Cells were treated with 0.5 μM thapsigargin and 0.1 to 5.0 μM of each drug for 2 hours. The cells were then harvested, pelleted and treated to ready for testing mRNA abundance for specific UPR genes from cells in the PCR reaction using the TaqMan™ Gene Expression Cells-to-CT™ Kit (Thermo Fisher). Prescreened primers were ordered from Bio-Rad. The gene tested is CHOP, (the C/EBP Homologous Protein). These markers were compared against GAPDH. The qPCR system we used was CFX 384 Real time (Bio-Rad). Samples were measured in triplicates and relative quantification, by the ΔΔCt-method, using GAPDH as reference. The biological results are summarized in Table 1 where A represents a greater than 50% reduction in CHOP signal in compound-treated versus untreated cells, B represents a 20% to 50% reduction in CHOP signal, and C represents a 1% to 20% reduction in CHOP signal.

| SMILES | CHOP reduction |
| --- | --- |
| O=C(COc1ccccc1)Nc1ccc(NC(=O)COc2ccccc2)cc1 [Compound A1, 2-Phenoxy-N-[4-(2-phenoxyacetylamino)phenyl]acetamide] | A (A represents a greater than 50% reduction in CHOP signal in compound-treated versus untreated cells) |
| O=C(COc1ccc(Cl)cc1)Nc1ccc(NC(=O)COc2ccc(Cl)cc2)cc1 [Compound A2, 2-(4-Chlorophenoxy)-N-[4-[[2-(4-chlorophenoxy)acetyl]amino]phenyl]acetamide] | B (B represents a 20% to 50% reduction in CHOP signal) |
| CC(C)(C)c1ccc(OCC(=O)Nc2ccc(NC(=O)COc3ccc(C(C)(C)C)cc3)cc2)cc1 [Compound A3, N,N′-Benzene-1,4-diylbis [2-(4-tert-butylphenoxy)acetamide]] | C (C represents a 1% to 20% reduction in CHOP signal) |
| Cc1ccc(OCC(=O)Nc2ccc(NC(=O)COc3ccc(C)cc3)cc2)cc1 [Compound A4, N,N′-Benzene-1,4-diylbis [2-(4-methylphenoxy)acetamide]] | C (C represents a 1% to 20% reduction in CHOP signal) |
| O=C(COc1ccccc1)Nc1ccc(NC(=O)COc2ccccc2)nc1 [Compound B1, 2-Phenoxy-N-[6-[[2-phenoxyacetyl]amino]pyridin-3-yl]acetamide] | C (C represents a 1% to 20% reduction in CHOP signal) |
| O=C(COc1ccc(Cl)cc1)Nc1ccc(NC(=O)COc2ccc(Cl)cc2)nc1 [Compound B2, 2-(4-Chlorophenoxy)-N-[6-[[2-(4-chlorophenoxy)acetyl]amino]pyridin-3-yl]acetamide] | A (A represents a greater than 50% reduction in CHOP signal in compound-treated versus untreated cells) |
| Cc1ccc(OCC(=O)Nc2ccc(NC(=O)COc3ccc(C)cc3)nc2)cc1 [Compound B3, 2-(4-Methylphenoxy)-N-[6-[[2-(4-methylphenoxy)acetyl]amino]pyridin-3-yl]acetamide] | B (B represents a 20% to 50% reduction in CHOP signal) |
| O=C(COc1ccccc1)Nc1cnc(NC(=O)COc2ccccc2)c(Br)c1 [Compound B4, 2-Phenoxy-N-[5-bromo-6-[[2-phenoxyacetyl]amino]pyridin-3-yl]acetamide] | C (C represents a 1% to 20% reduction in CHOP signal) |
| O=C(COc1ccc(Cl)cc1)Nc1cnc(NC(=O)COc2ccc(Cl)cc2)c(Br)c1 [Compound B5, 2-(4-Chlorophenoxy)-N-[5-bromo-6-[[2-(4-chlorophenoxy)acetyl]amino]pyridin-3-yl]acetamide] | C (C represents a 1% to 20% reduction in CHOP signal) |
| Cc1ccc(OCC(=O)Nc2cnc(NC(=O)COc3ccc(C)cc3)c(Br)c2)cc1 [Compound B6, 2-(4-Methylphenoxy)-N-[5-bromo-6-[[2-(4-methylphenoxy)acetyl]amino]pyridin-3-yl]acetamide] | C (C represents a 1% to 20% reduction in CHOP signal) |
| CC(C)(C)c1ccc(OCC(=O)Nc2cnc(NC(=O)COc3ccc(C(C)(C)C)cc3)c(Br)c2)cc1 [Compound B7, 2-(4-tert-Butylphenoxy)-N-[5-bromo-6-[[2-(4-tert-butylphenoxy)acetyl]amino]pyridin-3-yl]acetamide] | B (B represents a 20% to 50% reduction in CHOP signal) |
| Cc1cc(NC(=O)COc2ccccc2)ccc1NC(=O)COc1ccccc1 [Compound C1, 2-Phenoxy-N-[2-methyl-4-(2-phenoxyacetylamino)phenyl]acetamide] | B (B represents a 20% to 50% reduction in CHOP signal) |
| Cc1cc(NC(=O)COc2ccc(Cl)cc2)ccc1NC(=O)COc1ccc(Cl)cc1 [Compound C2, 2-(4-Chlorophenoxy)-N-[2-methyl-4-[[2-(4-chlorophenoxy)acetyl]amino]phenyl]acetamide] | A (A represents a greater than 50% reduction in CHOP signal in compound-treated versus untreated cells) |
| O=C(COc1ccccc1)Nc1ccc(NC(=O)COc2ccccc2)c(Cl)c1 [Compound C5, 2-Phenoxy-N-[2-chloro-4-(2-phenoxyacetylamino)phenyl]acetamide] | B (B represents a 20% to 50% reduction in CHOP signal) |
| O=C(COc1ccc(Cl)cc1)Nc1ccc(NC(=O)COc2ccc(Cl)cc2)c(Cl)c1 [Compound C6, 2-(4-Chlorophenoxy)-N-[2-chloro-4-[[2-(4-chlorophenoxy)acetyl]amino]phenyl]acetamide] | A (A represents a greater than 50% reduction in CHOP signal in compound-treated versus untreated cells) |
| Cc1ccc(OCC(=O)Nc2ccc(NC(=O)COc3ccc(C)cc3)c(Cl)c2)cc1 [Compound C7, N,N′-2-Chlorobenzene-1,4-diylbis[2-(4-methylphenoxy)acetamide]] | C (C represents a 1% to 20% reduction in CHOP signal) |
| CC(C)(C)c1ccc(OCC(=O)Nc2ccc(NC(=O)COc3ccc(C(C)(C)C)cc3)c(Cl)c2)cc1 [Compound C8, N,N′-2-Chlorobenzene-1,4-diylbis[2-(4-tert-butylphenoxy)acetamide]] | B (B represents a 20% to 50% reduction in CHOP signal) |

Tested on: hearing loss from noise exposure
Test: not given
Conditions: after a transient threshold shift; cited from earlier work

| SMILES | cochlear synaptopathy after a transient threshold shift |
| --- | --- |
| O=C(COc1ccc(Cl)cc1)NC1CCC(NC(=O)COc2ccc(Cl)cc2)CC1 (stereo not shown) [ISRIB] | can prevent cochlear synatopathy after a transient threshold shift |

Same assay, conditions: mice, noise exposure; cited from earlier work

| SMILES | hearing loss from noise exposure (permanent threshold shift) |
| --- | --- |
| O=C(COc1ccc(Cl)cc1)NC1CCC(NC(=O)COc2ccc(Cl)cc2)CC1 (stereo not shown) [ISRIB] | can prevent hearing loss in mice from noise exposure |
